These results are taken from patent US10940139B2, “Compounds that interact with the Ras superfamily for the treatment of cancers, inflammatory diseases, rasopathies, and fibrotic disease” (Shy Therapeutics LLC, priority 2017, dated 2021).

Broadly, the inhibition is the drop in the measured response relative to a control, in per cent.

The test system of assay [1] is TNFα production in RAW 264.7 macrophage cell line. Put plainly: Mouse TNF alpha quantification assay (LPS-stimulated macrophages, ELISA). To be noted: RAW264.7, RAW 264.7 murine leukemia virus transformed macrophage cell lines, LPS stimulation, read-out: TNF-α % Inhibition at 30 μM. Format: cell-based.
Assay [2] relates to IL6 production in RAW 264.7 macrophage cell line. As to the kind of experiment: Mouse IL6 quantification assay (LPS-stimulated macrophages, ELISA). In kind it is cell-based. To be noted: RAW264.7, RAW 264.7 murine leukemia virus transformed macrophage cell lines, LPS stimulation, read-out: IL-6 % Inhibition at 30 μM. For orientation: In an ELISA, binding on a coated surface is turned into a signal by an enzyme label.

For `Oc1nc(-c2ccccn2)nc2c(-c3ccc(OC4CCCC4)cc3)csc12` [drawing 2255], the inhibition at 30 µM was 0% in assay [1] and 76 to 100% in assay [2].

As for `COc1cnc(-c2nccn2C)nc1O` [drawing 2340], the results for the inhibition at 30 µM in assay [1] and in assay [2] were 0% and 1 to 25%, respectively.

Take `O=C(Cc1cccc(F)c1)Nc1nnc(-c2ccccn2)[nH]1` [drawing 1960]: the inhibition at 30 µM is 0% in assay [1] and 1 to 25% in assay [2].

For the compound `CC(C)OCCNc1nc(-c2nccn2C)nc2sc(-c3ccccc3)c(-c3ccccc3)c12` [drawing 2394], the inhibition at 30 µM in assay [1] and in assay [2] was 1 to 25% in each case.

For the compound `COc1ccnc(-c2nc(O)c3c(C(F)(F)F)csc3n2)c1` [drawing 2226], the inhibition at 30 µM in assay [1] lay in the range of 1 to 25%; in assay [2] it was 51 to 75%.

Regarding `Cn1ccnc1-c1nc(O)c2scc(-c3ccc(C(C)(C)C)cc3)c2n1` [drawing 2446], the inhibition at 30 µM in assay [1] was 0%; in assay [2], 1 to 25%.

For the compound `O=C(c1csc2c(O)nc(-c3ccccn3)nc12)N1CCNC(c2ccccc2F)C1` (stereo not shown) [drawing 2200], the inhibition at 30 µM in assay [1] was in the range of 1 to 25%; in assay [2], 76 to 100%.

As to `Cc1sc2c(O)nc(-c3ccccn3)nc2c1C(=O)N1CCN(c2ccccc2)CC1` [drawing 2332], the inhibition at 30 µM lay in the range of 1 to 25% in assay [1] and 26 to 50% in assay [2].

Take `Cc1sc2c(O)nc(-c3ccccn3)nc2c1C(=O)N1CCN(Cc2cccc(O)c2)CC1` [drawing 2334]: the figures for the inhibition at 30 µM in assay [1] and in assay [2] were 0% and 26 to 50%, respectively.

On to `Cn1cnc(-c2nc(O)c3scc(-c4cccc(C(F)(F)F)c4)c3n2)c1` [drawing 2431], for which the inhibition at 30 µM in assay [1] and in assay [2] was 0% each time.

On to `O=S1(=O)CCC(N2CCN(c3nc(-c4ccccn4)nc4scc(-c5ccccc5)c34)CC2)C1` (stereo not shown) [drawing 2145], for which the inhibition at 30 µM in assay [1] and in assay [2] was 1 to 25% each time.

Turning to `CC(C)c1noc(CCCC(=O)Nc2nnc(-c3ccccn3)[nH]2)n1` [drawing 1951], the inhibition at 30 µM in assay [1] was 1 to 25%; in assay [2], 0%.

With `COc1ccc(-c2csc3c(O)nc(-c4ccccn4)nc23)c(C)c1` [drawing 2273], the inhibition at 30 µM in assay [1] and in assay [2] was 76 to 100% in each case.

As for `CON(C)c1nc(-c2ccccn2)nc2scc(-c3ccccc3)c12` [drawing 2147], the inhibition at 30 µM in assay [1] was in the range of 1 to 25%; in assay [2] it was 26 to 50%.

Take `Cc1sc2c(O)nc(-c3ccccn3)nc2c1-c1ccccc1` [drawing 2297]: the inhibition at 30 µM in assay [1] and in assay [2] was 76 to 100% in each case.

On to `O=C(Nc1nnc(-c2ccccn2)[nH]1)c1nc(N2CCOCC2)ncc1Cl` [drawing 1964], for which the inhibition at 30 µM in assay [1] is 0%; in assay [2], 1 to 25%.

For `CC(Oc1ccc(C(=O)Nc2nnc(-c3ccccn3)[nH]2)cn1)c1ccccc1` (stereo not shown) [drawing 1968], the inhibition at 30 µM in assay [1] is 0%; in assay [2], 1 to 25%.

As for `NC(=O)C1(CNc2nc(-c3ccccn3)nc3c2CCC3)CCCC1` [drawing 2043], the inhibition at 30 µM in assay [1] was in the range of 1 to 25%; in assay [2], 26 to 50%.

With `Cn1ccnc1-c1nc(O)c2c(-c3ccccc3)c(-c3ccccc3)sc2n1` [drawing 2363], the inhibition at 30 µM in assay [1] is 26 to 50%; in assay [2] it was 1 to 25%.

For `COc1cnc(CNC(=O)c2sc3c(O)nc(-c4ccccn4)nc3c2C)[nH]c1=O` [drawing 2351], the inhibition at 30 µM in assay [1] and in assay [2] was 1 to 25% throughout.

Consider `COC1CC(CNc2nc(-c3ccccn3)nc3scc(-c4ccccc4)c23)CCC1OCC(N)=O` (stereo not shown), for which the inhibition at 30 µM in assay [1] and in assay [2] was 76 to 100% in each case.

Turning to `COCCOCCN(C)C(=O)c1csc2c(O)nc(-c3ccccn3)nc12` [drawing 2113], the inhibition at 30 µM in assay [1] was 0%; in assay [2], 26 to 50%.

Take `Cc1nc(-c2ccccn2)sc1C(=O)Nc1nnc(-c2ccccn2)[nH]1` [drawing 1983]: the inhibition at 30 µM in assay [1] was 0%; in assay [2], 1 to 25%.
